Source: patent US9334267B2, “RAF inhibitor compounds” (Deciphera Pharmaceuticals, LLC, priority 2012, dated 2016)

Assays:
Sk-Mel-2 cells = experiment: SK-Mel-2 cell proliferation assay (resazurin); assay type: cell-based; conditions: Homo sapiens, N-Ras mutation B-Raf wild type, read-out: Cell Proliferation Inhibition IC50, nM SK-Mel-2
HT-29 cells = experiment: HT-29 cell proliferation assay (resazurin); assay type: cell-based; conditions: Homo sapiens, V600E mutation, read-out: Cell Proliferation Inhibition IC50, nM HT-29
Method: HT-29 cells (catalog #HTB-38) are obtained from the American Type Culture Collection (ATCC, Manassas, Va.). Briefly, cells are grown in McCoy's 5A supplemented with 10% characterized fetal bovine serum (Invitrogen, Carlsbad, Calif.), and 1% Penicillin/Streptomycin/L-Glutamine at 37 degrees Celsius, 5% CO2, and 95% humidity. Cells are allowed to expand until reaching 75-90% confluency at which point they are subcultured or harvested for assay use. A serial dilution of test compound is dispensed into a 384-well black clear bottom plate in triplicate. One thousand two-hundred fifty cells are added per well in 50 μL complete growth medium in the 384-well plate. Plates are incubated for 67 hours at 37 degrees Celsius, 5% CO2, and 95% humidity. At the end of the incubation period, 10 μL of a 440 μM solution of resazurin (Sigma, St. Louis, Mo.) in PBS is added to each well of the plate and plates are incubated for an additional 5 hours at 37 degrees Celsius, 5% CO2, and 95% humidity. Plates are read on a Synergy2 reader (Biotek, Winooski, Vt.) using an excitation of 540 nm and an emission of 600 nm. Data is analyzed using Prism software (Graphpad, San Diego, Calif.) to calculate IC50 values.
The A375, HT-29, and Colo-205 cells (ATCC) harbor a V600E mutation.

human wild type C-Raf = biological target: T1, human wild type C-Raf (Homo sapiens, UniProt P04049); experiment: Enzymatic assay of C-Raf kinase activity (Raf/MEK1 ATPase, coupled PK/LDH, A340); assay type: biochemical; conditions: read-out: Enzyme IC50, nM C-Raf
T1 construct: made in house
T1 sequence (P04049 whole entry): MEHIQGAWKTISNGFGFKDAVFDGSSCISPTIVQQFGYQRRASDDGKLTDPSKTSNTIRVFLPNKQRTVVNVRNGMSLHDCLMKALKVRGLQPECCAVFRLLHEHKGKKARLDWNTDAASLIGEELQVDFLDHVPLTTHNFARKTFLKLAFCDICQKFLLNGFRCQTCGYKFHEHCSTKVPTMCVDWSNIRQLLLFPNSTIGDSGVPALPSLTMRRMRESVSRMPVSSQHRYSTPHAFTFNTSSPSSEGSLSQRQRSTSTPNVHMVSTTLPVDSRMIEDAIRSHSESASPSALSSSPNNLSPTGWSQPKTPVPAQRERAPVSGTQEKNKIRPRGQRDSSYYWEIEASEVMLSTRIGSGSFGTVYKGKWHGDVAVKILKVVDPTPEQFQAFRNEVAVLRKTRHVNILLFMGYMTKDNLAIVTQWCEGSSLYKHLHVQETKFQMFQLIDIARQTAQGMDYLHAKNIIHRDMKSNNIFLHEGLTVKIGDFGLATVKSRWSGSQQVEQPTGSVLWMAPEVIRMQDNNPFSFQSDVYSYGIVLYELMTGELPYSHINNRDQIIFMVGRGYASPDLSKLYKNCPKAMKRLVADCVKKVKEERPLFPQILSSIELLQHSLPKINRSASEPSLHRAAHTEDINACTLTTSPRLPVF
Method: Test compounds are evaluated for their inhibitory activities against one or more of human wild type B-Raf, human wild type C-Raf, human B-Raf V600E, human B-Raf V600E+T529I or human B-Raf V600E+G468A. T529I is a threonine to isoleucine B-Raf gatekeeper mutation and G468A is a B-Raf secondary mutation at G1403C in exon 11. The enzymatic assays of B-Raf, C-Raf and B-Raf mutations evaluate a property of Raf and MEK1 complex, which in the presence of ATP, catalyzes an enhanced ATP hydrolysis (Rominger, et al, Arch. Biochem. Biophys. 2007, 464: 130-137; US Patent Publication No. 2006/0211073). The ADP formed is monitored by the well-known coupled PK/LDH (pyruvate kinase/lactate dehydrogenase) system in the form of NADH oxidation, which can be monitored and detected spectrophotometrically by absorbance at 340 nm (A340; for principal of the method see Schindler et al, Science, 2000, 289: 1938-1942). Raf activated MEK1 ATPase activity is a property shared by all forms of Raf proteins.
Test compounds are evaluated for their inhibitory activities against one or more of wild type B-Raf, wild type C-Raf, B-Raf V600E, B-Raf V600E+T529I and B-Raf V600E+G468A. T529I is a B-Raf gatekeeper mutation and G468A is a B-Raf secondary mutation. The enzymatic assays of B-Raf, C-Raf and B-Raf mutations evaluate a property of Raf and MEK1 complex, which in the presence of ATP, catalyzes an enhanced ATP hydrolysis (Rominger, et al, Arch. Biochem. Biophys. 2007, 464: 130-137). The ADP formed is monitored by the well-known coupled PK/LDH (pyruvate kinase/lactate dehydrogenase) system in the form of NADH oxidation, which can be monitored and detected by absorbance at 340 nm (A340; for principal of the method see Schindler et al, Science, 2000, 289: 1938-1942). Raf activated MEK1 ATPase activity is a property shared by all forms of Raf proteins. In the B-Raf wild type enzymatic assay, the reaction mixture contains 1.2 nM B-Raf, 30 nM MEK1, 1000 uM ATP, 3.5 units (per 100 ul) of PK, 5 units (per 100 ul) of LDH, 1 mM phosphoenol pyruvate (PEP), and 280 uM of NADH. In the C-Raf assay, the reaction mixture contains 0.6 nM C-Raf, 26 nM MEK1, 2000 uM ATP, and the same amount of PK, LDH, PEP and NADH as above. In the B-Raf V600E assay, the reaction mixture contains […] B-Raf V600E, 26 nM MEK1, 200 uM ATP and the same amount of PK, LDH, PEP and NADH as above. In the B-RafV600E+T529I assay, the reaction mixture contains 6.2 nM B-Raf V600E+T529I, 30 nM MEK1, 200 uM ATP and the same amount of PK, LDH, PEP and NADH as above. In the B-Raf V600E+G468A assay, the reaction mixture contains 3.5 nM B-Raf, 30 nM MEK1, 200 uM ATP and the same amount of PK, LDH, PEP and NADH as above. All assays are started by mixing the above mixture with test compound and monitoring at A340 continuously for approximately 5 hr. […] In the aforementioned assays, the enzyme constructs can be screened prior to or after cleavage of the N-terminal purification tag.

human wild type c-KIT = biological target: T2, human wild type c-KIT (Homo sapiens, UniProt P10721); experiment: Enzymatic assay of c-Kit kinase activity (poly E4Y phosphorylation, coupled PK/LDH); assay type: biochemical
T2 construct: GST (N); made in house
T2 sequence (P10721 26-976): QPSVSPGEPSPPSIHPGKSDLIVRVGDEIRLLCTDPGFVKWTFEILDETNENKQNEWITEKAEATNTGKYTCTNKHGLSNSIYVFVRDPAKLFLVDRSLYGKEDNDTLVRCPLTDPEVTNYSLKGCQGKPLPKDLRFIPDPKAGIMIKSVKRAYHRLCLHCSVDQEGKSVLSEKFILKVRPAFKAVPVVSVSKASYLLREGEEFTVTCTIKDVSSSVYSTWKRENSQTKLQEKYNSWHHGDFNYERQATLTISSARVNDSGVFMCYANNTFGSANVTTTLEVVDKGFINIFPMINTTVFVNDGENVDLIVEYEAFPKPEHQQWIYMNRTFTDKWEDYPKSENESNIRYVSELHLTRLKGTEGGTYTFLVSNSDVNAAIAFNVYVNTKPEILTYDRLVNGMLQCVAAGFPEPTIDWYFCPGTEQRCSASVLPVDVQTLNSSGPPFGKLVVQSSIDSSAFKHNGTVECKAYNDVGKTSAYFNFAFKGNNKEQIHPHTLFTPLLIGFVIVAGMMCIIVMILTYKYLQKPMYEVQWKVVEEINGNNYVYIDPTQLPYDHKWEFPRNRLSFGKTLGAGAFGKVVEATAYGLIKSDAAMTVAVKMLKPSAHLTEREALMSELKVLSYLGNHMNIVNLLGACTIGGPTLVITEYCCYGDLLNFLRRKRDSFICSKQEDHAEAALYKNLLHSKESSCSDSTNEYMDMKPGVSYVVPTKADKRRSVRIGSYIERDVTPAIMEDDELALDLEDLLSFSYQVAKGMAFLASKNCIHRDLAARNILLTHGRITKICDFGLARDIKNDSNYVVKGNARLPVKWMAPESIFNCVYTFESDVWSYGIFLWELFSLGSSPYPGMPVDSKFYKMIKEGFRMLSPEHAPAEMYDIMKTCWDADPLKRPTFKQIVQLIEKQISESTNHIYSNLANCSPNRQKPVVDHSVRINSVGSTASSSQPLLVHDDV
From the text: c-Kit is an important oncogene, and its overexpression and genetic mutations often occur in melanoma and gastrointestinal stromal tumor (GIST) patients. In the c-Kit enzymatic assay, the phosphorylation of poly E4Y by ATP catalyzed by human c-Kit is monitored spectrophotometrically. The ADP produced from the kinase reaction is coupled to pyruvate kinase/lactate dehydrogenase (PK/LDH) reactions where NAD is formed from pyruvate and NADH. NADH can be detected by absorbance at 340 nm, as described above for enzymatic assays of kinase activities of B-Raf, C-Raf and B-Raf mutations.
The assay reaction mixture includes 6 nM human wild type c-KIT, 1 mg/mL Poly (Glu,Tyr) (Sigma), 1 mM Phosphoenol-pyruvate, 280 μM NADH, 5 U/3.5 U (per 100 ul) Pyruvate Kinase/Lactate Dehydrogenase, 85 mM Tris, pH 7.5, 17 mM MgCl2, 0.0042% Triton® X-100, 0.005% BSA, 1% DMSO. Test compound is incubated with the reaction mixture for 0.5 hour before adding 200 μM ATP to start the reaction at 30° C.

A375res cells = experiment: Proliferation assay in vemurafenib-resistant melanoma cells A375res; conditions: Homo sapiens, 72 h, read-out: absolute IC50 values
HCT-116 cells = experiment: HCT-116 cell proliferation assay (resazurin); assay type: cell-based; conditions: Homo sapiens, K-Ras mutation B-Raf wild type, read-out: Cell Proliferation Inhibition IC50, nM HCT-116

| Compound | IC50 (Sk-Mel-2 cells) [nM] | IC50 (HT-29 cells) [nM] | IC50 (human wild type C-Raf) [nM] | IC50 (human wild type c-KIT) [nM] | IC50 (A375res cells) [nM] | IC50 (HCT-116 cells) [nM] |
| --- | --- | --- | --- | --- | --- | --- |
| CNc1ncc2cc(-c3cc(NC(=O)NCCC4(C)CC4)c(F)cc3C)c(C)nc2n1 [Example 24, 1-(2-Fluoro-4-methyl-5-(7-methyl-2-(methylamino)pyrido[2,3-d]pyrimidin-6-yl)phenyl)-3-(2-(1-methylcyclopropyl)ethyl)urea] | 100 to 1000 | < 100 | < 150 | < 150 | 15 to 1100 | 100 to 1000 |
| CNc1ncc2cc(-c3cc(NC(=O)NCCC4(C(F)(F)F)CC4)c(F)cc3C)c(C)nc2n1 [Example 30, 1-(2-Fluoro-4-methyl-5-(7-methyl-2-(methylamino)pyrido[2,3-d]pyrimidin-6-yl)phenyl)-3-(2-(1-(trifluoromethyl)cyclopropyl)ethyl)urea] | 100 to 1000 | < 100 | < 150 | < 150 | 15 to 1100 | 100 to 1000 |
| CNc1ncc2cc(-c3cc(NC(=O)NCCC(C)(C)F)c(F)cc3C)cnc2n1 [Example 34, 1-(3-Fluoro-3-methyl-butyl)-3-[2-fluoro-4-methyl-5-(2-methylaminopyrido[2,3-d]pyrimidin-6-yl)phenyl]urea] | 100 to 1000 | < 100 | < 150 | < 150 | 15 to 1100 | 100 to 1000 |
| CNc1ncc2cc(-c3cc(NC(=O)NCCC(C)(C)C)c(F)cc3C)cnc2n1 [Example 35, 1-(3,3-Dimethylbutyl)-3-[2-fluoro-4-methyl-5-(2-methylaminopyrido[2,3-d]pyrimidin-6-yl)phenyl]urea] | < 100 | < 100 | < 150 | < 150 | 15 to 1100 | 100 to 1000 |

Second part, the compound after the results:

| IC50 (Sk-Mel-2 cells) [nM] | IC50 (HT-29 cells) [nM] | IC50 (human wild type C-Raf) [nM] | IC50 (human wild type c-KIT) [nM] | IC50 (A375res cells) [nM] | IC50 (HCT-116 cells) [nM] | Compound |
| --- | --- | --- | --- | --- | --- | --- |
| 100 to 1000 | < 100 | < 150 | < 150 | 15 to 1100 | 100 to 1000 | Cc1cc(F)c(NC(=O)NCCC(C)(C)F)cc1-c1cc2cnc(NC3COC3)nc2nc1C [Example 25, 1-(3-Fluoro-3-methylbutyl)-3-(2-fluoro-4-methyl-5-(7-methyl-2-(oxetan-3-ylamino)pyrido[2,3-d]pyrimidin-6-yl)phenyl)urea] |
| 100 to 1000 | < 100 | < 150 | < 150 | 15 to 1100 | 1000 to 10000 | CCNc1ncc2cc(-c3cc(NC(=O)NCCC(C)(C)F)c(F)cc3C)c(C)nc2n1 [Example 26, 1-(5-(2-(Ethylamino)-7-methylpyrido[2,3-d]pyrimidin-6-yl)-2-fluoro-4-methylphenyl)-3-(3-fluoro-3-methylbutyl)urea] |
| 100 to 1000 | < 100 | < 150 | < 150 | 15 to 1100 | 100 to 1000 | CNc1ncc2cc(-c3cc(NC(=O)NCCC(C)(C)C(F)(F)F)c(F)cc3C)c(C)nc2n1 [Example 27, 1-(2-Fluoro-4-methyl-5-(7-methyl-2-(methylamino)pyrido[2,3-d]pyrimidin-6-yl)phenyl)-3-(4,4,4-trifluoro-3,3-dimethylbutyl)urea] |
| 1000 to 10000 | 100 to 1000 | < 150 | < 150 | 15 to 1100 | 1000 to 10000 | Cc1cc(F)c(NC(=O)NCCC(C)(C)F)cc1-c1cc2cnc(N)nc2nc1C [Example 28, 1-(5-(2-Amino-7-methylpyrido[2,3-d]pyrimidin-6-yl)-2-fluoro-4-methylphenyl)-3-(3-fluoro-3-methylbutyl)urea] |
